In PubChem BioAssay (NCI):
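Five compound concentrations were applied to cells in 96-well plates for 48 hours; endpoints were derived by simple linear interpolation of the resulting dose-response curve. Here, GI50 denotes the concentration required for 50% inhibition of growth. The concentration for full growth arrest is given as TGI.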

Legend:
Test in all cases: DTP human tumour cell line panel, 48 h
SR leukemia = system: SR leukemia
MDA-MB-435 = system: MDA-MB-435
CCRF-CEM leukemia = system: CCRF-CEM leukemia
MDA-MB-231 breast = system: MDA-MB-231 breast
EKVX NSCLC = system: EKVX NSCLC
786-0 renal = system: 786-0 renal
OVCAR-3 ovarian = system: OVCAR-3 ovarian
SK-MEL-5 melanoma = system: SK-MEL-5 melanoma
HOP-92 NSCLC = system: HOP-92 NSCLC
NCI-H226 lung = system: NCI-H226 lung
SF-295 CNS = system: SF-295 CNS
HT29 colon = system: HT29 colon
MCF7 breast = system: MCF7 breast
SK-MEL-28 melanoma = system: SK-MEL-28 melanoma
UACC-257 melanoma = system: UACC-257 melanoma
NCI-H522 lung = system: NCI-H522 lung
A549 NSCLC = system: A549 NSCLC
SW-620 colon = system: SW-620 colon
M14 melanoma = system: M14 melanoma
LOX IMVI melanoma = system: LOX IMVI melanoma
DU-145 prostate = system: DU-145 prostate
OVCAR-5 ovarian = system: OVCAR-5 ovarian
SN12C renal = system: SN12C renal
PC-3 prostate = system: PC-3 prostate
MOLT-4 leukemia = system: MOLT-4 leukemia
SK-OV-3 ovarian = system: SK-OV-3 ovarian
HL-60(TB) leukemia = system: HL-60(TB) leukemia
A498 renal = system: A498 renal
KM12 colon = system: KM12 colon
SF-539 CNS = system: SF-539 CNS
HCC-2998 colon = system: HCC-2998 colon
T-47D breast = system: T-47D breast
TK-10 renal = system: TK-10 renal
HCT-116 colon = system: HCT-116 colon
RPMI-8226 leukemia = system: RPMI-8226 leukemia
RXF 393 renal = system: RXF 393 renal
IGROV1 ovarian = system: IGROV1 ovarian
NCI-H23 lung = system: NCI-H23 lung
OVCAR-8 ovarian = system: OVCAR-8 ovarian
OVCAR-4 ovarian = system: OVCAR-4 ovarian
SNB-75 CNS = system: SNB-75 CNS
SK-MEL-2 melanoma = system: SK-MEL-2 melanoma
UO-31 renal = system: UO-31 renal
K-562 leukemia = system: K-562 leukemia
SF-268 CNS = system: SF-268 CNS
SNB-19 CNS = system: SNB-19 CNS
NCI/ADR-RES ovarian = system: NCI/ADR-RES ovarian
U251 CNS = system: U251 CNS
NCI-H460 lung = system: NCI-H460 lung
BT-549 breast = system: BT-549 breast
HCT-15 colon = system: HCT-15 colon
HOP-62 NSCLC = system: HOP-62 NSCLC
UACC-62 melanoma = system: UACC-62 melanoma
MALME-3M melanoma = system: MALME-3M melanoma

## COc1ccc2[nH]c(=O)c(/C=C/C(=O)c3ccccc3OC)cc2c1
SR leukemia
  GI50: 0.0656 µM
  TGI: 10.3 µM
MDA-MB-435
  GI50: 0.0564 µM
  TGI: 0.275 µM
CCRF-CEM leukemia
  GI50: 0.392 µM
  TGI: > 100 µM
MDA-MB-231 breast
  GI50: 1.44 µM
  TGI: 11 µM
EKVX NSCLC
  GI50: 2.05 µM
  TGI: 10.5 µM
786-0 renal
  GI50: 0.378 µM
  TGI: 1.56 µM
OVCAR-3 ovarian
  GI50: 0.359 µM
  TGI: 1.64 µM
SK-MEL-5 melanoma
  GI50: 0.728 µM
  TGI: 2.08 µM
HOP-92 NSCLC
  GI50: 1.57 µM
  TGI: 6.17 µM
NCI-H226 lung
  GI50: 3.34 µM
  TGI: 18.5 µM
SF-295 CNS
  GI50: 0.529 µM
  TGI: 12.1 µM
HT29 colon
  GI50: 0.293 µM
  TGI: 1.37 µM
MCF7 breast
  GI50: 0.312 µM
  TGI: 7.48 µM
SK-MEL-28 melanoma
  GI50: 1.52 µM
  TGI: 7.31 µM
UACC-257 melanoma
  GI50: 1.38 µM
  TGI: 3.05 µM
NCI-H522 lung
  GI50: 0.352 µM
  TGI: 2.06 µM
A549 NSCLC
  GI50: 2.09 µM
  TGI: 10.4 µM
SW-620 colon
  GI50: 0.335 µM
  TGI: 2.24 µM
M14 melanoma
  GI50: 0.278 µM
  TGI: 1.41 µM
LOX IMVI melanoma
  GI50: 0.379 µM
  TGI: 1.61 µM
DU-145 prostate
  GI50: 0.529 µM
  TGI: 1.96 µM
OVCAR-5 ovarian
  GI50: 1.97 µM
  TGI: 10.4 µM
SN12C renal
  GI50: 0.537 µM
  TGI: 10.3 µM
PC-3 prostate
  GI50: 0.842 µM
  TGI: 3.75 µM
MOLT-4 leukemia
  GI50: 0.421 µM
  TGI: 27.1 µM
SK-OV-3 ovarian
  GI50: 2.23 µM
  TGI: 12.8 µM
HL-60(TB) leukemia
  GI50: 0.206 µM
  TGI: 0.883 µM
A498 renal
  GI50: 0.656 µM
  TGI: 4.55 µM
KM12 colon
  GI50: 0.321 µM
  TGI: 1.58 µM
SF-539 CNS
  GI50: 0.443 µM
  TGI: 2.49 µM
HCC-2998 colon
  GI50: 1.57 µM
  TGI: 3.03 µM
T-47D breast
  GI50: 1.06 µM
  TGI: 11.8 µM
TK-10 renal
  GI50: 2.31 µM
  TGI: 13.1 µM
HCT-116 colon
  GI50: 0.348 µM
  TGI: 1.48 µM
RPMI-8226 leukemia
  GI50: 0.385 µM
  TGI: 2.21 µM
RXF 393 renal
  GI50: 1.02 µM
  TGI: 2.57 µM
IGROV1 ovarian
  GI50: 0.582 µM
  TGI: 17 µM
NCI-H23 lung
  GI50: 1.33 µM
  TGI: 3.93 µM
OVCAR-8 ovarian
  GI50: 0.874 µM
  TGI: 11.6 µM
OVCAR-4 ovarian
  GI50: 4.07 µM
  TGI: 23.2 µM
SNB-75 CNS
  GI50: 0.47 µM
  TGI: 14.2 µM
SK-MEL-2 melanoma
  GI50: 0.694 µM
  TGI: 4.39 µM
UO-31 renal
  GI50: 0.958 µM
  TGI: 2.28 µM
K-562 leukemia
  GI50: 0.162 µM
  TGI: > 100 µM
SF-268 CNS
  GI50: 0.69 µM
  TGI: 10.5 µM
SNB-19 CNS
  GI50: 0.362 µM
  TGI: 1.79 µM
NCI/ADR-RES ovarian
  GI50: 0.273 µM
  TGI: 20 µM
U251 CNS
  GI50: 0.521 µM
  TGI: 1.7 µM
NCI-H460 lung
  GI50: 0.38 µM
  TGI: 2.25 µM
BT-549 breast
  GI50: 0.387 µM
  TGI: 2.42 µM
HCT-15 colon
  GI50: 0.395 µM
  TGI: 2.05 µM
HOP-62 NSCLC
  GI50: 1.24 µM
  TGI: 5.32 µM
UACC-62 melanoma
  GI50: 0.478 µM
  TGI: 2.97 µM
MALME-3M melanoma
  GI50: 0.766 µM
  TGI: 8.09 µM
